Experimental data reported in patent US6808930B1, “Therapeutic agents” (priority 1997, dated 2004).

Test system: L1210, A549 and HRTEC nuclei
Assay: DNA fragmentation in isolated nuclei
Type: cell-based
Conditions: L1210 and A549 nuclei incubated with Ca2+ inhibitors
Procedure: Nuclei were purified from L1210, A549 and HRTEC cells and incubated with low concentrations of MAL (0.2 and 0.4 mg/ml). The formation of HMW and oligonucleosome length DNA fragments was examined.
A549, L1210 and HRTEC nuclei were isolated from homogenised cells. Pellet 1 from the homogenisation was washed twice in nuclei buffer for 20 min at 100×g and suspended in nuclei buffer for experiments. Rat liver nuclei was isolated.
A549, L1210 or HRTEC nuclei in suspension were placed in individual wells in a 24-well plate ([…]), mixed with MAL, α-lactalbumin, lactoferrin or BSA (100 μl in nucleus buffer), incubated at 37° C. for 1 hour (L1210,) or 2 hours (A549 and HRTEC), harvested by aspiration, analysed for DNA fragmentation as described above.

| Structure (SMILES) | effect on MAL induced DNA fragmentation |
| --- | --- |
| CC(=O)OCOC(=O)CN(CC(=O)OCOC(C)=O)c1ccccc1OCCOc1ccccc1N(CC(=O)OCOC(C)=O)CC(=O)OCOC(C)=O [BAPTA/AM, reference compound] | completely blocked the DNA fragmentation |
| O=C(O)CN(CCN(CC(=O)O)CC(=O)O)CC(=O)O [EDTA, reference compound] | completely blocked the DNA fragmentation |
